Assay results as given in PMC6385020 (Molecules, 2019).
pIC50: −log10 of the molar value. Several values for one entry are separate records, joined by “and”; a condition that tells them apart may be missing. Identical values can stand only once. Entries after “also recorded” stand apart in the source; their conditions may differ. Like-named read-outs stand apart in the source and are kept apart here.

Key:
[1] = tested on: 22AG human telomeric sequence G4; test: TO G4-FID assay; type: binding; settings: TO 2 eq, K+100 buffer
Experimental: (§1) For the G4-FID assay, the oligonucleotides were dissolved in K^+100 buffer (10 mM lithium cacodylate buffer pH 7.3, 100 mM KCl, 1% DMSO). Oligonucleotide concentrations were determined on the basis of their absorbance at 260 nm. For the fluorimetric titration, the oligonucleotides were dissolved in K^+100 buffer without DMSO. For the FRET-melting assay, the oligonucleotides were dissolved in K^+1 buffer (10 mM lithium cacodylate buffer pH 7.3, 1 mM KCl, 99 mM LiCl) except for F-21-T. F-21-T was dissolved in K^+10 buffer (10 mM lithium cacodylate buffer pH 7.3, 10 mM KCl, 90 mM LiCl).
(§2) Prior to use, all oligonucleotides were pretreated by heating at 95 °C for 5 min, then rapidly cooled to 4 °C to favor the intramolecular folding by kinetic trapping. Duplex-DNA ds26 was prepared by heating the self-complementary strand at 90 °C for 5 min in K^+1 buffer followed by a slow cooling over 6 h.
(§3) Each G4-FID assay was performed in a 96-well Non-Binding Surface black with black bottom polystyrene microplates (Corning). Every ligand was tested on a line of the microplate, in duplicate. The microplate was filled with (a) K^+100 solution (qs for 200 μL), (b) 10 μL of a solution of pre-folded oligonucleotides (5 μM) and fluorescent probe (TO/TO-PRO-3 (10 μM—2 eq) or PhenDV (7,5 µM—1.5 eq)), and (c) an extemporaneously prepared 5 μM ligand solution in K^+100 buffer (0 to 100 μL) along the line of the microplate, i.e., from column A to column H: 0, 0.125, 0.25, 0.375, 0.5, 0.625, 0.75, 1.0, 1.25, 1.5, 2.0, and 2.5 μM. After 5 min of orbital shaking at 500 rpm, fluorescence is measured using the following experimental parameters: positioning delay of 0.5 s, 20 flashes per well, emission/excitation filters for TO at 485/520, TO-PRO-3 at 620/670, and PhenDV at 355/520 gain adjusted at 80% of the fluorescence from the most fluorescent well (i.e., a well from column A for TO and a well from column H).
(§4) The percentage of TO displacement is calculated from the fluorescence intensity (F), using (1) % TO displacement=1−F/F0 where F0 is the fluorescence from the fluorescent probe bound to DNA without added ligand.
(§5) The PhenDV displacement is calculated from the fluorescence intensity F; F(ligand+probe), which refers to the fluorescence of the probe in presence of the ligand (without G4); and F0, which is the fluorescence without added ligand. The term F(ligand+probe) is necessary as the ligand can quench the fluorescence of the probe. The percentage of displacement is then plotted as a function of the concentration of the added ligand. The DNA affinity was evaluated by the concentration of ligand required to decrease the fluorescence of the probe by 50%, was noted DC50, and was determined after non-linear fitting of the displacement curve.

[2] = tested on: CEB25-WT minisatellite sequence G4; test: TO G4-FID assay; type: binding; settings: TO 2 eq, K+100 buffer
Experimental: as §1, §2, §3, §4, §5

c-myc G4 [3] = test: TO G4-FID assay; type: binding; settings: TO 2 eq, K+100 buffer
Experimental: as §1, §2, §3, §4, §5

[4] = tested on: 21CTA human telomeric sequence variant G4; type: binding; settings: K+100 buffer; for % of TO displacement at 1 µM of ligand: TO 2 eq; for % of TOPRO3 displacement at 1 µM of ligand: TO-PRO-3 2 eq
Experimental: as §1, §2, §3, §4, §5

[5] = tested on: 22AG human telomeric sequence G4; test: TO-PRO-3 G4-FID assay; type: binding; settings: TO-PRO-3 2 eq, K+100 buffer
Experimental: as §1, §2, §3, §4, §5

[6] = tested on: CEB25-WT minisatellite sequence G4; test: TO-PRO-3 G4-FID assay; type: binding; settings: TO-PRO-3 2 eq, K+100 buffer
Experimental: as §1, §2, §3, §4, §5

c-myc G4 [7] = test: TO-PRO-3 G4-FID assay; type: binding; settings: TO-PRO-3 2 eq, K+100 buffer
Experimental: as §1, §2, §3, §4, §5

[8] = tested on: 22AG human telomeric sequence G4; test: PhenDV G4-FID assay; type: binding; settings: PhenDV 1.5 eq, K+100 buffer
Experimental: as §1, §2, §3
(§6) In the case of PhenDV, the fluorescence of the unbound probe is not negligible. The percentage of displacement becomes (2) % PhenDV Displacement=F−F0/Fligand+probe−F0
as §5

[9] = tested on: CEB25-WT minisatellite sequence G4; test: PhenDV G4-FID assay; type: binding; settings: PhenDV 1.5 eq, K+100 buffer
Experimental: as §1, §2, §3, §6, §5

c-myc G4 [10] = test: PhenDV G4-FID assay; type: binding; settings: PhenDV 1.5 eq, K+100 buffer
Experimental: as §1, §2, §3, §6, §5

[11] = tested on: 21CTA human telomeric sequence variant G4; type: binding; settings: PhenDV 1.5 eq, K+100 buffer
Experimental: as §1, §2, §3, §6, §5

[12] = tested on: c-myc (myc22) (DNA, G4) TGAGGGTGGGTAGGGTGGGTAA; test: G4-FID, PhenDV displacement; settings: 100 mM KCl; 10 mM lithium cacodylate pH 7.3, 1% DMSO; PhenDV displaced; 1 µM compound
[13] = tested on: G4-DNA structures (F-21-T, F-myc-T, F-21CTA-T, F-CEB25-WT-T); test: FRET-melting assay (ligand-induced stabilization); type: binding, human
Experimental: as §1, §2
The stabilization of the compounds with a quadruplex-structure was monitored via FRET-melting assay performed in 96-well plates on a real-time PCR apparatus 7900HT Fast Real-Time PCR System as follows: 5 min at 25 °C and then an increase of 0.5 °C every minute until 95 °C. Each experimental condition was tested and replicated in a volume of 25 μL for each sample. The FRET-melting assay was performed with three dual fluorescently labeled DNA oligonucleotide sequences oligonucleotides. The donor fluorophore was 6-carboxyfluorescein, FAM, and the acceptor fluorophore was 6-carboxytetramethylrhodamine, TAMRA. The 96-well plates (Applied Biosystems) were prepared by aliquoting the annealed DNA (0.2 μM in K^+1 or K^+10 buffer) into each well, followed by 1 μL of the ligand ([…] (5 eq) in DMSO). For competition experiments, duplex competitors were added to 200 nM quadruplex sequences at final concentrations of 3.0 μM (15 eq) and 10.0 μM (50 eq), with a total reaction volume of 25 μL, with the labeled oligonucleotide (0.2 μM) and the ligand (1 μM). Measurements were made with excitation at 492 nm and detection at 516 nm. The change in the melting temperature at 1.0 μm compound concentration, ΔTm (1.0 μM), was calculated from at least two experiments by subtraction of the blank from the averaged melting temperature of each compound (1.0 μM). The final analysis of the data was carried out using Origin Pro 8.6 data analysis.

[14] = tested on: G4 structures (22AG, c-myc, 21CTA, CEB25-WT); test: TO-PRO-3-G4-FID assay, G4 structures; type: binding
Experimental: as §1, §2, §3, §4, §5

[15] = tested on: A2780 ovarian cancer cell line; test: Cell growth (proliferation), 96 h treatment; type: cell-based, human; settings: for pIC50: A2780, 96 h treatment
Experimental: (§7) The ovarian carcinoma cell lines and human normal lung cells were purchased from ATCC and were grown in complete RPMI medium (ovarian) and DMEM (human lung cells) supplemented with 10% fetal calf serum, in the presence of penicillin, streptomycin. The resistance of A2780cis cells to cisplatin was maintained by monthly treatment with 1 µM cisplatin for 4 days. Concentrated stock solutions of complexes were conserved at −20 °C (DMSO/Water) and freshly diluted in water just before the experiments. Cells were treated with various concentrations of platinum complexes at 37 °C under humidity and 5% CO2 conditions for 96 h. Cellular growth was quantified using the particle counter MOXI (VWR).

[16] = tested on: A2780cis cisplatin-resistant ovarian cancer cell line; test: Cell growth (proliferation), 96 h treatment; type: cell-based, human
Experimental: as §7

[17] = tested on: CCD19Lu normal lung cell line; test: Cell growth (proliferation), 96 h treatment; type: cell-based, human
Experimental: as §7

22AG G4 = tested on: 22AG G4; parameters: method as in PMID 28825434; settings: K+100 buffer, 20 °C; cited from earlier work
c-myc G4 [18] = tested on: c-myc G4; parameters: method as in PMID 21528379; settings: cited from earlier work
21CTA G4 = tested on: 21CTA G4; parameters: method as in PMID 21528379; settings: cited from earlier work
[19] = tested on: all the tested G4s structures; parameters: method as in PMID 21528379; settings: cited from earlier work

SMILES | % of TO displacement at 1 µM of ligand [1] [%] | % of TO displacement at 1 µM of ligand [2] [%] | % of TO displacement at 1 µM of ligand (c-myc G4 [3]) [%] | % of TO displacement at 1 µM of ligand [4] [%] | % of TOPRO3 displacement at 1 µM of ligand [4] [%] | % of PhenDV displacement at 1 µM of ligand [8] [%] | % of PhenDV displacement at 1 µM of ligand [9] [%] | % of PhenDV displacement at 1 µM of ligand (c-myc G4 [10]) [%] | % of PhenDV displacement at 1 µM of ligand [11] [%] | pIC50 [15] | pIC50 [17] | also measured
C[n+]1cc(NC(=O)c2ccc3ccc4ccc(C(=O)Nc5cc6ccccc6[n+](C)c5)nc4c3n2)cc2ccccc21 [PhenDC3, reference compound] | 95 | 90 | 96 | 95 | 83 | 92 | 99 | 85 | 100 | – | – | % of TOPRO3 displacement at 1 µM of ligand [5]: 85%; % of TOPRO3 displacement at 1 µM of ligand [6]: 88%; % of TOPRO3 displacement at 1 µM of ligand (c-myc G4 [7]): 73%; binding [12]: yes
F[P-](F)(F)(F)(F)F.[Pt+][C]#Cc1ccccc1.c1ccc(-c2cccc(-c3ccccn3)n2)nc1 [Pt(PA)-tpy, Phenylethylny-(2,6-bis(pyridin-2-yl)pyridine)-platinum(II) Hexafluorophosphate] | 55 | 37 | 59 | 52 | 3 | 20 | 13 | 2 | 34 | 7.10 | 6.92 | ∆Tm (ligand-induced stabilization, FRET-melting) [13]: complete lack of stabilization properties; also recorded: no stabilization; TO-PRO-3 displacement [14]: weak displacement; IC50 in words ([15]; A2780 cell lines): active at nM concentration; pIC50 [16]: 7.30; Resistance Factor (IC50ratio A2780cis/A2780) [16]: 0.6
N.N.[Cl][Pt][Cl] [cisplatin, reference compound] | – | – | – | – | – | – | – | – | – | 6.48 | 6.70 | Resistance Factor (IC50ratio A2780cis/A2780) ([16]; 96 h treatment): 9.1; pIC50 ([16]; A2780cis, 96 h treatment): 5.52
CN1C(=Cc2cc[n+](C)c3ccccc23)Sc2ccccc21 [TO, Thiazole Orange] | – | – | – | – | – | – | – | – | – | – | – | KA (22AG G4): 1 × 10^6 (a) M^−1; KA (c-myc G4 [18]): 5 × 10^6 M^−1 and 5 × 10^6 (b) M^−1; KA (21CTA G4): 1 × 10^6 (b) M^−1; affinity constants towards all the tested G4s structures (Ka) [19]: ~ 10^6 M^−1
